{"source": "patent US20050197383A1", "about": "“Quaternary ammonium compounds and their use as anti-tussive agents” (UCB Farchim S.A., priority 1999, published 2005)", "system": "citric acid-induced cough responses", "assay": "citric acid-induced cough in conscious guinea-pigs (aerosol pre-treatment)", "format": "in vivo, guinea-pig", "details": "aerosol 10.0 mg/ml pre-treatment immediately before citric acid (1M) exposure; 15 minute observation period", "text": "The following method is one of the general methods available to determine the antitussive activity of the compounds of the present invention.\nMale albino Dunkin-Hartley strain guinea-pigs (weight 300-400 g) can be obtained from various commercial suppliers.\nThe method is a modification of that described by Adcock J. J., Schneider C. and Smith T. W., “Effects of Morphine and a Novel Opioid Pentapeptide BW443C, on Cough, Nociception and Ventilation in the Unanaesthetized Guinea-pig”, Br. J. Pharmacol., 93, 93-100 (1988). […]\nCylinder air is introduced into the exposure chamber at a flow rate of 1 liter/min, maintained by a needle valve and monitored by a rotameter. […]\nCough responses are induced by exposure to an aerosol of citric acid (1M) for 10 minutes. Animals are continuously monitored by trained observer, and the number of coughs are counted during a 15 minute period from commencement of the citric acid aerosol administration. […]\nThe three types of response are differentiated primarily by sound and visual observation. […] Each cough is marked on the Grass polygraph paper trace, and from these record numbers, frequency and time of onset of coughs are determined. […]\nQuantities of drugs are weighed out and dissolved in a vehicle. […] The sequence of pre-treatment administration is determined according to a 4×4 Latin Square design. […]", "data": [{"smiles": "CC(C)[N+](C)(C)CC(O)COc1cccc2ccccc12.[I-]", "note": "(stereo not shown) [N,N-dimethyl-propranolol iodide, 2-Hydroxy-N-isopropyl-N,N-dimethyl-3-(1-naphthyloxy)propan-1-aminium iodide]", "values": [{"measurement": "inhibition of cough responses compared with vehicle (saline) pre-treated guinea pigs", "result": "50-70%"}]}]}
